Values joined by “and” are separate entries in the source; they are usually repeats but may differ in a detail not shown here. Equal values may be shown once.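 Growth conditions: 96-well plates. Treatment: test compound, 48 hours, 5 concentrations. Analysis: linear interpolation between bracketing concentrations; unreached endpoints set to highest concentration. GI50: concentration for 50% inhibition of growth. TGI denotes the concentration required for complete inhibition of growth.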 Where a SMILES comes first, the peptide text is derived from it. The star is where a group is joined. Boc = CC(C)(C)OC(=O)*
Experiments:
Experiment in all cases: DTP human tumour cell line panel, 48 h
SK-OV-3 ovarian = tested on: SK-OV-3 ovarian
CCRF-CEM leukemia = tested on: CCRF-CEM leukemia
SK-MEL-2 melanoma = tested on: SK-MEL-2 melanoma
SR leukemia = tested on: SR leukemia
OVCAR-3 ovarian = tested on: OVCAR-3 ovarian
MCF7 breast = tested on: MCF7 breast
MALME-3M melanoma = tested on: MALME-3M melanoma
HCC-2998 colon = tested on: HCC-2998 colon
M14 melanoma = tested on: M14 melanoma
UACC-257 melanoma = tested on: UACC-257 melanoma

| Structure (SMILES) | GI50 (SK-OV-3 ovarian) [µM] | TGI (SK-OV-3 ovarian) [µM] | GI50 (CCRF-CEM leukemia) | TGI (CCRF-CEM leukemia) | GI50 (SK-MEL-2 melanoma) [µM] | TGI (SK-MEL-2 melanoma) [µM] | GI50 (SR leukemia) | TGI (SR leukemia) | GI50 (OVCAR-3 ovarian) | TGI (OVCAR-3 ovarian) | GI50 (MCF7 breast) | TGI (MCF7 breast) [µM] | GI50 (MALME-3M melanoma) [µM] | TGI (MALME-3M melanoma) | GI50 (HCC-2998 colon) | TGI (HCC-2998 colon) | GI50 (M14 melanoma) [µM] | TGI (M14 melanoma) [µM] | GI50 (UACC-257 melanoma) [µM] | TGI (UACC-257 melanoma) [µM] |
| --- | --- | --- | --- | --- | --- | --- | --- | --- | --- | --- | --- | --- | --- | --- | --- | --- | --- | --- | --- | --- |
| CN(C)CCC(=O)C(=Cc1ccc(O)cc1)C(=O)CCN(C)C | > 100 | > 100 | 43.4 µM | > 100 µM | > 100 | > 100 | 93.2 µM | > 100 µM | > 100 µM | > 100 µM | 30.9 µM | > 100 | > 100 | > 100 µM | > 100 µM | > 100 µM | > 100 | > 100 | > 100 | > 100 |
| COC(=O)C(C)NC(=O)C(CCSC)NC(=O)C(Cc1ccccc1)NC(=O)OC(C)(C)C (stereo not drawn) (Boc-Phe-Met-Ala-OMe; configuration not given here) |  | > 100 | 2.63 µg/mL |  |  | > 100 | 21.4 µg/mL | 44.8 µg/mL and > 100 µM | 26.6 µg/mL | 52.7 µg/mL and > 100 µM | 31.7 µg/mL | > 100 |  | > 100 µM | 20.1 µg/mL | 36.4 µg/mL and > 100 µM |  | > 100 |  | > 100 |
| COc1ccc(C2=C(c3ccc(OC)cc3)C(=O)N3CCCC3C2)cc1 (centres undefined) | 26.4 | > 100 | 5.49 µM | > 48.2 µM | 18.3 | > 100 | > 37.1 µM | > 100 µM | 11.7 µM | > 100 µM | 12.8 µM | > 100 | 52.6 | > 100 µM | 26.4 µM | 93.4 µM | 28 | > 100 | 32.9 | > 100 |
| CN(C)c1ncnc2c1ncn2CCn1cnc2c(N(C)C)ncnc21 |  | > 100 |  | > 100 µM |  | > 100 |  | > 100 µM |  | > 100 µM |  | > 100 |  | > 100 µM |  | > 100 µM |  | > 100 |  | > 100 |
| CCOC(=O)/C=C/c1ccc(C#Cc2ccccc2)cc1 | > 100 | > 100 | > 100 µM | > 100 µM | > 100 | > 100 | 10.3 µM | > 100 µM | > 100 µM | > 100 µM | > 100 µM | > 100 | 98.3 | > 100 µM | > 100 µM | > 100 µM | > 100 | > 100 | > 100 | > 100 |
| COc1cc2c3c(c1OC)-c1cc4c(cc1CC3(C#N)N(C(=O)c1ccccc1)CC2)OCO4 (centres undefined) |  | 44.4 |  | > 100 µM |  | > 100 |  | > 100 µM |  | > 86.6 µM |  | > 100 |  | 97.7 µM |  | > 100 µM |  | > 100 |  | > 100 |
| Cn1c(=O)c(Oc2ccc(F)cc2)cc2cnc(NC3CCOCC3)nc21 | > 25 | > 25 | > 25 µM | > 25 µM | > 25 | > 25 | > 25 µM | > 25 µM | > 25 µM | > 25 µM | > 25 µM | > 25 | > 25 | > 25 µM | > 25 µM | > 25 µM | > 25 | > 25 | > 25 | > 25 |
| CS(=O)(=O)Nc1cc(-c2ccc3ncnc(Nc4c(Cl)ccc5c4OCO5)c3c2)cnc1Cl | 0.131 | 0.759 | 0.15 µM | 6.84 µM | 0.232 | 1.04 | 0.325 µM | 3.41 µM | 0.127 µM | 0.925 µM | 0.0524 µM | 1.47 | 0.0525 | 0.515 µM | 0.262 µM | 1.51 µM | 0.2 | 1.48 | 0.208 | 3.32 |
| CC1(Br)Cc2ccccc2C1=O (centres undefined) |  | 65.9 | 0.318 µM | 6.75 µM and 1.82 µM |  | 24.2 | 0.129 µM | 1.25 µM | 4.11 µM | 14.5 µM | 2.22 µM | 8.52 |  | 9.62 µM and 14.1 µM |  | > 100 µM | 1.08 | 4.4 | 13.3 | 29.2 |
| C[C@H](Nc1cc(Cl)nc2c1cnn2[C@@H]1O[C@H](COP(=O)(O)CP(=O)(O)O)[C@@H](O)[C@H]1O)c1ccccc1F | > 100 | > 100 | > 100 µM | > 100 µM | > 100 | > 100 | > 100 µM | > 100 µM | > 100 µM | > 100 µM | > 100 µM | > 100 | > 100 | > 100 µM | > 100 µM | > 100 µM | > 100 | > 100 | > 100 | > 100 |
| CCc1ccc(/C=C/c2ccc(O)c3ncccc23)[n+](C)c1 | 26.9 | > 100 | 4.95 µM | > 100 µM | > 71.7 | > 100 | 2.76 µM | > 25.9 µM | 0.671 µM | > 23.4 µM | 7.99 µM | > 90.7 | 13.7 | > 100 µM | > 30.5 µM | > 100 µM |  | > 100 | 16.9 | > 100 |
| CN1CC[C@@H](c2c(O)cc(O)c3c(=O)cc(-c4ccc(C(F)(F)F)cc4Cl)oc23)[C@@H]1CO | 26.6 | 70 | 23.4 µM | 70.2 µM | 18.1 | 41 | 3.21 µM | 17 µM | 17 µM | 46.9 µM | 14.5 µM | 38.3 | 18.4 | 36.9 µM | 13.7 µM | 33.1 µM | 17.8 | 33.8 | 26.6 | 46.7 |
| CC(C)OC(=O)[C@H](C)NP(=O)(OC[C@H]1O[C@@H](n2ccc(=O)[nH]c2=O)[C@](C)(F)[C@@H]1O)Oc1ccccc1 (some centres undefined) | > 100 | > 100 | > 100 µM | > 100 µM | > 100 | > 100 | > 100 µM | > 100 µM | > 100 µM | > 100 µM | > 100 µM | > 100 | > 100 | > 100 µM | > 100 µM | > 100 µM | > 100 | > 100 | > 100 | > 100 |
| COc1cc(/C=C/C(=O)c2cccc(-n3cc(-c4ccc(Cl)cc4)[nH]c3=O)c2)ccc1O | 4.78 | > 30.2 | 0.706 µM | 4.42 µM | 3.61 | 14.4 | 11.8 µM | > 100 µM | 1.56 µM | 3.57 µM | 1.44 µM | 7.98 | 5.99 | 22.2 µM | 2.35 µM | 5.5 µM | 3.51 | 15.2 | 5.53 | 18.6 |
| COC(=O)C1=CN(CC2=CC(=O)C(C)=CC2=O)C=C(C(=O)OC)C1c1cccc(OC)c1 | 20.3 | 43.1 | 2.38 µM | > 21.9 µM | 24.3 | > 100 | 4.74 µM | 35 µM | 3.51 µM | 12.3 µM | 16 µM | > 100 | 6.81 | 16.1 µM | 12.5 µM | 32.6 µM | 18.6 | 35.6 | 16.3 | 31 |
| CCN(Cc1ccc(F)cc1)c1ccc(CO)c(Br)c1 | 5.18 | 21.9 | 14.6 µM | 43.9 µM | 0.96 | 12.6 | 17 µM | 46.4 µM | 0.238 µM | 0.868 µM | 0.15 µM | 16.1 | 16.9 | 38 µM | 5.29 µM | 30.8 µM | 16.5 | > 55.1 | 0.0406 | 0.185 |
| COC12C(COC(N)=O)C3=C(C(=O)C(C)=C(N)C3=O)N1CC1C2N1C (centres undefined) |  | 49 |  | 51.7 µM |  | 31.2 |  | 56.5 µM |  | 35.4 µM |  | 22.3 |  | 18.7 µM |  | 16.7 µM |  | 22.7 |  | 35.6 |
